The results in this text go back to patent US12059422B2 (MEI Pharma, Inc., priority 2011, dated 2024).

Experiment [1] concerns the target T1, PI3Kγ (Mus musculus, UniProt Q9JHG7).
T1 construct: endogenous in cells; host or cells: RAW 264.7 (ATCC #TIB-71)
In words: ELISA assay for PI3Kγ: in-cell ELISA, phosphorylation of AKT (Ser473) in RAW 264.7 cells. In kind it is cell-based. To be noted: cellular, pAKT (Ser473), C5a stimulation, read-out: IC50 p110γ. The method, boiled down:
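Serum-starved mouse RAW 264.7 macrophages were pretreated with compound (10 concentrations) for 2 h at 37 °C, then stimulated 3 min with human C5a. After fixation, in-cell ELISA measured pAKT Ser473 by infrared imaging, with total S6 as reference. IC50 obtained by curve fitting.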
(In general: An ELISA detects its analyte on a solid surface through an enzyme-linked reagent.)

For experiment [2], the target named is T2, PI3Kβ (Homo sapiens, UniProt P42338).
T2 construct: endogenous in cells; host or cells: PC-3 (ATCC #CRL-1435)
In words: ELISA assay for PI3Kβ: in-cell ELISA, phosphorylation of AKT (Ser473) in PC-3 cells. The experiment is classed as cell-based. Particulars: for IC50: cellular, pAKT (Ser473), PC-3 cells, LPA stimulation, read-out: IC50 p110β; for α/β ratio: ratio of cellular IC50 values, Table 2.

Structures are written as SMILES. Some results are limits rather than exact numbers.

T1 sequence (Q9JHG7 whole entry): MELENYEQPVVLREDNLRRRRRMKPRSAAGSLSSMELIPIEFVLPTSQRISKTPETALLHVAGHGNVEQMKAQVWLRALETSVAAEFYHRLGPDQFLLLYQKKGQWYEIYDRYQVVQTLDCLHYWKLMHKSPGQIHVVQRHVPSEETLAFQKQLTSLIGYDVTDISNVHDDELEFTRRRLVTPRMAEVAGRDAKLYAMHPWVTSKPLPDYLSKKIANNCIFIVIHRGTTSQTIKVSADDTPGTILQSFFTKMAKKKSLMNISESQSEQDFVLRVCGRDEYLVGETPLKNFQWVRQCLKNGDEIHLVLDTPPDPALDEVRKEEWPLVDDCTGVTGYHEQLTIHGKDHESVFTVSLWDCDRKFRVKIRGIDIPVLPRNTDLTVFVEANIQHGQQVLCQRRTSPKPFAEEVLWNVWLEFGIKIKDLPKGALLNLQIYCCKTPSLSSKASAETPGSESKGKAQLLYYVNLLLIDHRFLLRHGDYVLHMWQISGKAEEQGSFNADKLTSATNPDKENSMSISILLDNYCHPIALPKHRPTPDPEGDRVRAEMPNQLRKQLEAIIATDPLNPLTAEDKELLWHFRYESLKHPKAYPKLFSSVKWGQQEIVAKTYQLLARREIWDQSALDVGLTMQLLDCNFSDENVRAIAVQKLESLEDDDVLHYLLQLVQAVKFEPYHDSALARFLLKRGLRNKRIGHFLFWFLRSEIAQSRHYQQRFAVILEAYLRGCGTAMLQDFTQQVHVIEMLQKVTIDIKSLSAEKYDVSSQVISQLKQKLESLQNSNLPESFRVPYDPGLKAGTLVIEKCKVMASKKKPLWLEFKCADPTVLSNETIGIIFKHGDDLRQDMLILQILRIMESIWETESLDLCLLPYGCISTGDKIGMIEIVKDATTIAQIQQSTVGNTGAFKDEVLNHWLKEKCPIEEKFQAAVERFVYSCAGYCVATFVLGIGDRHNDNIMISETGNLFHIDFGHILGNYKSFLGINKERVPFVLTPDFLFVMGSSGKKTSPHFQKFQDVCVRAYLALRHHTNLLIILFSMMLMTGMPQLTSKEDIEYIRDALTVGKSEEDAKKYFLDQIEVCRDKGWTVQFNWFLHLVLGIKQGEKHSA
T2 sequence (P42338 whole entry): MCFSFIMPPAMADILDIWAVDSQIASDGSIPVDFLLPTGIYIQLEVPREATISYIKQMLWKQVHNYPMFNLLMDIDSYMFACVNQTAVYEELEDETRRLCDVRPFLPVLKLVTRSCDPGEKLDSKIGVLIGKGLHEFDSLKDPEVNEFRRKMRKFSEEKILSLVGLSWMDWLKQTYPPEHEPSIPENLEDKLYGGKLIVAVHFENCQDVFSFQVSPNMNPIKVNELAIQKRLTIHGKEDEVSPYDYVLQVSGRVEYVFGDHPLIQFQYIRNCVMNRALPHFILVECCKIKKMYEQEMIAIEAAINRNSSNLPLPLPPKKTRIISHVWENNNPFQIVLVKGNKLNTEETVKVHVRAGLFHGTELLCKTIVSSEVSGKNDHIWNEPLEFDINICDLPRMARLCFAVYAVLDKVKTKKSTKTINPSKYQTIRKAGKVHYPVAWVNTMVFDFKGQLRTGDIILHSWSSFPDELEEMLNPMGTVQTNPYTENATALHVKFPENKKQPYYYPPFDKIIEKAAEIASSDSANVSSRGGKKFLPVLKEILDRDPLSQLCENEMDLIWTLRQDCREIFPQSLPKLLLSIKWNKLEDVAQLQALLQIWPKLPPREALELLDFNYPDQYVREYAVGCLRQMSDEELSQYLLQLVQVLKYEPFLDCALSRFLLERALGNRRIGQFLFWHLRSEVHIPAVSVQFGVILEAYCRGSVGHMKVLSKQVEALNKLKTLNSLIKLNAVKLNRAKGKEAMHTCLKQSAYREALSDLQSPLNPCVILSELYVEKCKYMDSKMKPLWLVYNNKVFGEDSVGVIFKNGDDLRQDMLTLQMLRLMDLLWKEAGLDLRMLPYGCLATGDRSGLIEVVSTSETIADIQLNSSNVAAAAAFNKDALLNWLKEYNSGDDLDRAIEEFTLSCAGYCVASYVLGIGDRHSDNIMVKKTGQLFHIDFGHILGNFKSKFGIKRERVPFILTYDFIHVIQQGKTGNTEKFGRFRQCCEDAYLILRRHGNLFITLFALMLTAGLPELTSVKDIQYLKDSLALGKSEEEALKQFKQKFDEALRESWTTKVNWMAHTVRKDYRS
T2 sequence (P27986 whole entry partner): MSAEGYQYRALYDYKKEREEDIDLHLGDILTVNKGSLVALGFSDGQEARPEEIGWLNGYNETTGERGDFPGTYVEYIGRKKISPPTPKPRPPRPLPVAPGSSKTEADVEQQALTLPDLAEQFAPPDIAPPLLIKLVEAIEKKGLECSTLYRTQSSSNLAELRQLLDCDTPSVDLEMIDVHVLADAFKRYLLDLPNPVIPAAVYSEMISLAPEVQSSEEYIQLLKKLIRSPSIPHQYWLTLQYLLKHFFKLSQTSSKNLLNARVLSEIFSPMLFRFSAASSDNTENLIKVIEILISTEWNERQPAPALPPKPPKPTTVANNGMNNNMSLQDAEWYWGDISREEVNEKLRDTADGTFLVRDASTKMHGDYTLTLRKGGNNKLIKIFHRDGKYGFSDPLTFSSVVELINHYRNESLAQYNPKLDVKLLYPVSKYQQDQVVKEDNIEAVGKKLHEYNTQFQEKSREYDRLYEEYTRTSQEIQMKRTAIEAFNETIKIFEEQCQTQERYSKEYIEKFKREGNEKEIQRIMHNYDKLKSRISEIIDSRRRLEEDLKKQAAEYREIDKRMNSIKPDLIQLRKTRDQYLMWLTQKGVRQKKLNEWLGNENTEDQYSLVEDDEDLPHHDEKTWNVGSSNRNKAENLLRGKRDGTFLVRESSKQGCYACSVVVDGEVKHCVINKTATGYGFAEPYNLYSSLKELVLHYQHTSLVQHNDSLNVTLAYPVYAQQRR

In general, IC50 refers to the concentration at which inhibition is half-maximal. For the compound `COc1cccc(-c2ccccc2CC(C)(C)Nc2nc(N3CCOCC3)nc(-n3c(C(F)F)nc4ccccc43)n2)c1` [Compound A66, 4-(2-(difluoromethyl)-1H-benzo[d]imidazol-1-yl)-N-(1-(3′-methoxybiphenyl-2-yl)-2-methylpropan-2-yl)-6-morpholino-1,3,5-triazin-2-amine], in experiment [1], the IC50 was greater than 0.5 µM. In experiment [2], the IC50 is 0.1 to 0.2 µM and the α/β ratio entry is recorded as “A’”.
The matching figures for `Cc1ccccc1CC(C)(C)Nc1nc(N2CCOCC2)nc(-n2c(C(F)F)nc3ccccc32)n1` [Compound A18, 4-(2-(difluoromethyl)-1H-benzo[d]imidazol-1-yl)-N-(2-methyl-1-(o-tolyl)propan-2-yl)-6-morpholino-1,3,5-triazin-2-amine]: 0.2 to 0.5 µM, no more than 0.1 µM and “C’”.
For `CC(C)(Cc1ccccc1-c1cccnc1)Nc1nc(N2CCOCC2)nc(-n2c(C(F)F)nc3ccccc32)n1` [Compound A40, 4-(2-(difluoromethyl)-1H-benzo[d]imidazol-1-yl)-N-(2-methyl-1-(2-(pyridin-3-yl)phenyl)propan-2-yl)-6-morpholino-1,3,5-triazin-2-amine], in experiment [1], the IC50 was in the range of 0.2 to 0.5 µM. In experiment [2], the IC50 is no more than 0.1 µM and the α/β ratio result is listed as “A’”.
The like results for `CC(C)(Cc1ccccc1C1CCNC1)Nc1nc(N2CCOCC2)nc(-n2c(C(F)F)nc3ccccc32)n1` (stereo not drawn) [Compound A74, 4-(2-(difluoromethyl)-1H-benzo[d]imidazol-1-yl)-N-(2-methyl-1-(2-(pyrrolidin-3-yl)phenyl)propan-2-yl)-6-morpholino-1,3,5-triazin-2-amine] were, in that order, 0.2 to 0.5 µM, no more than 0.1 µM and “A’”.
The like results for `CC(C)(Cc1ccccc1-c1ccccc1F)Nc1nc(N2CCOCC2)nc(-n2c(C(F)F)nc3ccccc32)n1` [Compound A59, 4-(2-(difluoromethyl)-1H-benzo[d]imidazol-1-yl)-N-(1-(2′-fluorobiphenyl-2-yl)-2-methylpropan-2-yl)-6-morpholino-1,3,5-triazin-2-amine] were, in that order, greater than 0.5 µM, 0.1 to 0.2 µM and “A’”.
